Compound in the experiment: CCN1C(=O)C2=CC(=C(N=C2N(C1=O)C3CC3)N)C(=O)N + Cc1nc(NC(=O)N2CCC[C@H]2C(N)=O)sc1-c1ccnc(C(C)(C)C(F)(F)F)c1 [Alpelisib] (partner 2 µM)
The experiment can be described thus: relative viability (nuclei count vs DMSO), 5 days (fraction); higher = more cells survive. The method in brief:
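One day after seeding in 1536-well plates, lung cancer cell lines were dosed by pin tool. Dosing was either single-drug or a fixed anchor-drug dose plus five library-drug doses (not always all listed) in √10 steps. After 5 days, nuclei were stained in one fix-and-stain step and counted on 4× images, and relative viability is the nuclei count of treated wells over that of vehicle wells, given as the median of duplicate plates.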

PC-14: the relative viability (first compound 0.253 µM) was 0.928, the relative viability (first compound 0.8 µM) stood at 0.942, the relative viability (first compound 2.53 µM) was 0.913 and the relative viability (first compound 8 µM) worked out at 1.06.
For NCI-H3122, in that order: 0.748, 0.755, 0.717 and 0.819.
For SK-MES-1, in that order: 0.865, 0.917, 0.85 and 0.962.
For NCI-H1944, in that order: 0.826, 0.832, 0.749 and 0.842.
For the cell line LK-2, the relative viability was 0.761 (first compound 0.253 µM), 1.36 (first compound 0.8 µM), 1.3 (first compound 2.53 µM) and 1.13 (first compound 8 µM).
Regarding RERF-LC-KJ, the relative viability by setting is: (first compound 0.253 µM) 0.792; (first compound 0.8 µM) 0.791; (first compound 2.53 µM) 0.763; (first compound 8 µM) 0.838.
The like results for COR-L23 were, in that order, 0.775, 0.714, 0.816 and 0.944.
The like results for NCI-H1355 were, in that order, 0.829, 0.949, 0.787 and 0.853.
The like results for NCI-H460 were, in that order, 0.471, 0.433, 0.467 and 0.466.
As for NCI-H1993, the relative viability (first compound 0.253 µM) was found to be 0.651, the relative viability (first compound 0.8 µM) was 0.7, the relative viability (first compound 2.53 µM) worked out at 0.611 and the relative viability (first compound 8 µM) is 0.669.
The like results for HCC-15 were, in that order, 0.921, 0.959, 0.873 and 0.986.
For NCI-H23, in that order: 0.638, 0.741, 0.615 and 0.789.
The like results for NCI-H1395 were, in that order, 0.958, 1.04, 1.01 and 0.976.
As to NCI-H1666, the relative viability was determined as 0.985 (first compound 0.253 µM), 0.77 (first compound 0.8 µM), 0.969 (first compound 2.53 µM) and 1.09 (first compound 8 µM).
The like results for NCI-H2405 were, in that order, 0.909, 0.79, 0.767 and 0.723.
As to NCI-H2009, the relative viability (first compound 0.253 µM) came out at 1.17, the relative viability (first compound 0.8 µM) was found to be 1.11, the relative viability (first compound 2.53 µM) was 1.13 and the relative viability (first compound 8 µM) is 1.09.
The like results for HCC-78 were, in that order, 0.299, 0.337, 0.31 and 0.467.
The like results for NCI-H2170 were, in that order, 0.908, 0.789, 0.734 and 0.809.
On to NCI-H1793, for which the relative viability is, setting by setting: (first compound 0.253 µM) 0.715; (first compound 0.8 µM) 0.644; (first compound 8 µM) 0.63.
In the case of HCC-366, the relative viability reads like this: (first compound 0.253 µM) 0.442; (first compound 0.8 µM) 0.505; (first compound 2.53 µM) 0.456; (first compound 8 µM) 0.468.
The like results for NCI-H1651 were, in that order, 0.86, 0.948, 0.875 and 0.957.
As to LC-2-ad, the relative viability reads like this: (first compound 0.253 µM) 0.838; (first compound 0.8 µM) 0.897; (first compound 2.53 µM) 0.881; (first compound 8 µM) 0.914.
With HCC-827, the relative viability by setting is: (first compound 0.253 µM) 0.915; (first compound 0.8 µM) 0.964; (first compound 2.53 µM) 0.941; (first compound 8 µM) 0.88.
For UMC-11, the relative viability runs as follows: (first compound 0.253 µM) 1.09; (first compound 0.8 µM) 0.942; (first compound 2.53 µM) 0.863; (first compound 8 µM) 1.07.
For ABC-1, in that order: 1.23, 0.751, 1.11 and 0.969.
As for NCI-H1703, the relative viability is 0.339 (first compound 0.253 µM), 0.342 (first compound 0.8 µM), 0.31 (first compound 2.53 µM) and 0.368 (first compound 8 µM).
The like results for COR-L 105 were, in that order, 1.08, 0.959, 0.833 and 0.853.
The like results for LOU-NH91 were, in that order, 0.687, 0.716, 0.721 and 0.684.
The like results for NCI-H727 were, in that order, 0.568, 0.572, 0.598 and 0.658.
Consider LU99A, for which the relative viability was determined as 0.488 (first compound 0.253 µM), 0.531 (first compound 0.8 µM), 0.527 (first compound 2.53 µM) and 0.524 (first compound 8 µM).
On to NCI-H596, for which the relative viability stood at 0.491 (first compound 0.253 µM), 0.436 (first compound 0.8 µM), 0.474 (first compound 2.53 µM) and 0.438 (first compound 8 µM).
For HOP-62, in that order: 1, 1.06, 0.778 and 0.964.
For SK-LU-1, in that order: 1.1, 0.992, 1.04 and 1.38.
LCLC-103H: the relative viability (first compound 0.253 µM) came out at 0.935, the relative viability (first compound 0.8 µM) turned out to be 0.962, the relative viability (first compound 2.53 µM) was determined as 0.907 and the relative viability (first compound 8 µM) came to 0.934.
NCI-H1734: the relative viability reads like this: (first compound 0.253 µM) 0.658; (first compound 0.8 µM) 0.669; (first compound 2.53 µM) 0.688; (first compound 8 µM) 0.738.
